# Where a SMILES comes first, the peptide text is derived from it.
# What was measured:
# [1] = tested on: Mus musculus; assay: Number of writhings 10 min after intracerebroventricular administration of 10 microg 3 and ip administration of naloxone (10 min before compound is administered).; assay type: functional
# [2] = biological target: T1, Neprilysin (Mus musculus, UniProt Q61391)
# T1 sequence (Q61391 whole entry): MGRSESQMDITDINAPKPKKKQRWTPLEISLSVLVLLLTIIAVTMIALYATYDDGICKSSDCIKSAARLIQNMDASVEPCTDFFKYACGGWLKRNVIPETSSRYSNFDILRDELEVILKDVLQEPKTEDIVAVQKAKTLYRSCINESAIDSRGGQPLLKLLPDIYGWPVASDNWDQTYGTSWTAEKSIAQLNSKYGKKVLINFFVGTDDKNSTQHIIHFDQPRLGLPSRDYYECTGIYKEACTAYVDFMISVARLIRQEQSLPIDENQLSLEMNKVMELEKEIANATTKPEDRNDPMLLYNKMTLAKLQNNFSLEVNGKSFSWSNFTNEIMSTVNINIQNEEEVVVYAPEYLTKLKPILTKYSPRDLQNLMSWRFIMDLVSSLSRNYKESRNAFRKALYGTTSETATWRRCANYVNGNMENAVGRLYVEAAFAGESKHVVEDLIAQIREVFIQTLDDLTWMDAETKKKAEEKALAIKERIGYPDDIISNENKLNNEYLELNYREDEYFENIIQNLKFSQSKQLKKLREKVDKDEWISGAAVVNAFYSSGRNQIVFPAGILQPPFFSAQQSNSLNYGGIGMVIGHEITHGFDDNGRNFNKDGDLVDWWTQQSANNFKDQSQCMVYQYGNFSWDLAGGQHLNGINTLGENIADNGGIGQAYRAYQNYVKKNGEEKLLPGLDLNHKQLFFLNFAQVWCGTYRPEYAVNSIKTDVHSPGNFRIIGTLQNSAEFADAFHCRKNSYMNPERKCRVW
# Description: 50% Inhibitory potency against enkephalinase from mouse striatum.
# [3] = biological target: T2, Angiotensin-converting enzyme (Mus musculus, UniProt P09470); assay: 50% Inhibitory potency against angiotensin I converting enzyme from mouse striatum.
# T2 sequence (P09470 whole entry): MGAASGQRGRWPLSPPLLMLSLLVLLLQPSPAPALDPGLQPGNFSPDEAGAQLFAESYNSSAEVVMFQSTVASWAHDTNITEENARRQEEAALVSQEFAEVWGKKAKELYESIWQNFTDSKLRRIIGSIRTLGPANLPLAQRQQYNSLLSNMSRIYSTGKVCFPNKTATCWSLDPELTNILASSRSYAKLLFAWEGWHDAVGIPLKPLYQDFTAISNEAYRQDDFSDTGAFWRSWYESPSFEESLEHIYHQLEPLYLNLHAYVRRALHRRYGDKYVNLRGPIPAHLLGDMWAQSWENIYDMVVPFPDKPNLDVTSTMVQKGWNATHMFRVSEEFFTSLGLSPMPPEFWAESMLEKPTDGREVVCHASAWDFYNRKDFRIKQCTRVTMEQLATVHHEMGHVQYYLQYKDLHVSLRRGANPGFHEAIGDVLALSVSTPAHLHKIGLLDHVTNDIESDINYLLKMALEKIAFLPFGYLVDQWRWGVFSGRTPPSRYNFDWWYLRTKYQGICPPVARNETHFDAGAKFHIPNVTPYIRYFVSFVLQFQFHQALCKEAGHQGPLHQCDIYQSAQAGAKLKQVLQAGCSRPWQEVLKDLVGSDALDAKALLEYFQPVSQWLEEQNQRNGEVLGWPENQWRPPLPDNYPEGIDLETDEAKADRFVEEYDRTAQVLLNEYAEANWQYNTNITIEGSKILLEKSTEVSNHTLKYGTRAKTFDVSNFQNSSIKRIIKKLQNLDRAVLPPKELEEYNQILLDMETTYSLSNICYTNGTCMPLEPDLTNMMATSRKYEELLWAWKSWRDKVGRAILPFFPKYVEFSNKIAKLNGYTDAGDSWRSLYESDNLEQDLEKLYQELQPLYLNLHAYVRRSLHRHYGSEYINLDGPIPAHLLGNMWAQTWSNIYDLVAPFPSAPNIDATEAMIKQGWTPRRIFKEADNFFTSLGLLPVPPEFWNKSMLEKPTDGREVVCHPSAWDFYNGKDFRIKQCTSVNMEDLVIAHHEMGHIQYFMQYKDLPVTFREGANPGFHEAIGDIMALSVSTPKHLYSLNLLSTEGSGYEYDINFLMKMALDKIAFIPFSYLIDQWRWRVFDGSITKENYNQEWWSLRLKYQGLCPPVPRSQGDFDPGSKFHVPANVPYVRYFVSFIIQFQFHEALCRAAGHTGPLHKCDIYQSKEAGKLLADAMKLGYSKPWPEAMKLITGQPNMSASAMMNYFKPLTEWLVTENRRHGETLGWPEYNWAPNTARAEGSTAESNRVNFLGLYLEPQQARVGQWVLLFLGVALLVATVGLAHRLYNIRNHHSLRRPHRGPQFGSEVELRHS
# [4] = biological target: T2, Angiotensin-converting enzyme
# Description: 50% Inhibitory potency against Angiotensin I converting enzyme from mouse striatum.
SMILES,Writhing number [1],IC50 [2] [µM],IC50 [3] [µM],IC50 [4] [µM]
C=CCN1CC[C@]23c4c5ccc(O)c4O[C@H]2C(=O)CC[C@@]3(O)[C@H]1C5.CC(C)CC(NC(=O)C(Cc1ccccc1)C(=O)O)C(=O)O,29.7,,,
CC(C)C[C@H](NC(=O)[C@@H](Cc1ccccc1)NCC(=O)O)C(=O)O,,> 100,,
CC(C)CC(NC(=O)C(CC(=O)O)Cc1ccccc1)C(=O)O (stereo not drawn),,0.8,20,
CC(C)CC(NC(=O)C(Cc1ccccc1)C(=O)O)C(=O)O (stereo not drawn),29.7,0.7,,> 1000
CC(C)CC(NC(=O)C(Cc1ccccc1)NCCC(=O)O)C(=O)O (stereo not drawn),,11,> 100,
CC(C)C[C@H](NC(=O)[C@H](Cc1ccccc1)NCC(=O)O)C(=O)O,,2,2,
CC(C)C[C@@H](NC(=O)[C@@H](Cc1ccccc1)NCC(=O)O)C(=O)O,,18,,
C[C@H](NC(=O)[C@H](Cc1ccccc1)NCC(=O)O)C(=O)O,,0.5,4,
CC(C)C[C@H](NC(=O)[C@@H](N)Cc1ccccc1)C(=O)O (H-Phe-Leu-OH),,20,,700
"CC(C)CC(NC(=O)[C@H](Cc1ccccc1)NCC(=O)O)C(=O)O (single isomer, unassigned)",,11,,
C=CCN1CC[C@]23c4c5ccc(O)c4O[C@H]2C(=O)CC[C@@]3(O)[C@H]1C5 [NALOXONE],31.2,,,

# Source: ChEMBL document CHEMBL1122448, “New carboxyalkyl inhibitors of brain enkephalinase: synthesis, biological activity, and analgesic properties” (J Med Chem, 1983)
